Results taken from a melting point compilation (Tetko et al.).

SMILES | melting point [°C]
CS(=O)(=O)c1ccc(N)cc1 | 132 to 134
Cc1ccc(CNC(=O)c2ccccc2N)cc1 | 140 to 142
NNC(=O)c1ccc(Cl)c(S(N)(=O)=O)c1 | 212 to 214
COc1ccccc1-c1cc(N)n(-c2ccccc2)n1 | 119 to 121
CS(=O)(=O)c1ccc2c(c1)CCCN2 | 112 to 114
CC(C(=O)O)S(=O)(=O)Cc1cccc(Br)c1 (stereo not given) | 109 to 111
CC(=O)c1ccc(Oc2ccc(Br)cc2)cc1 | 79 to 81
Nc1ccc(OCc2cccc(F)c2)c(Cl)c1 | 79 to 81
CC1(C)Cc2cc(C(=O)O)sc2-c2ccccc21 | 209 to 211
Cc1csc(NC(=O)CSCC(N)C(=O)O)n1 (stereo not given) | 169 to 171
Cc1nc(COc2ccc(C=O)cc2)no1 | 57 to 59
Clc1cc(-c2ncc[nH]2)ccn1 | 187 to 189
CCCOc1ccc(OCC(=O)O)cc1 | 106 to 108
CNS(=O)(=O)c1ccc2c(c1)NCC2 | 86 to 88
O=C1CC(=O)N(c2cccnc2)C(=S)N1 | 229 to 231
Nc1cc(C2CCCC2)nn1-c1ccccc1 | 80 to 82
Cc1cc(C(=O)O)sc1-c1cccc(Cl)c1 | 178 to 180
CS(=O)(=O)Nc1ccccc1F | 75 to 77
CC(=O)N(CCC(N)=S)C(C)C | 104 to 106
Clc1nc(CN2CCOCC2)nc2scc(-c3cccs3)c12 | 105 to 107
O=C1CCc2[nH]c3ccccc3c2C1 | 129 to 131
CC(C)(C)CNc1ccc(C(N)=O)c(Cl)c1 | 138 to 140
CC(C)(C)OC(=O)N1CCc2ccc(O)cc2C1 | 134 to 136
Cc1ccc(-c2nn(-c3ccccc3)cc2CO)cc1C | 134 to 136
CC1=NN(c2ccc(F)cc2)C(=O)C1 | 148 to 150

SMILES | melting point [°C]
CCOC(=O)c1sc(O)nc1C | 171 to 173
O=C(O)c1sc(-c2ccccc2)nc1C(F)F | 179 to 181
O=C(O)c1cnc(Oc2ccccc2)cn1 | 134 to 136
CS(=O)(=O)N1CCC(NC(=O)N2CCC(C(=O)O)CC2)CC1 | 197 to 199
CC(C)(C)OC(=O)N1CCCC(COS(C)(=O)=O)C1 (stereo not given) | 76 to 78
O=C(CCl)NCc1ccccc1[N+](=O)[O-] | 93 to 95
Cn1cccc1C(=O)NC(=O)CCl | 139 to 141
Cc1cc(O)nc(NN)n1 | 213 to 215
Nc1cc(Cl)cc([N+](=O)[O-])c1O | 152 to 154
COc1cc(OC)cc(N2CCCNCC2)c1 | 50 to 52
COc1ccc(Br)cc1CBr | 51 to 58
Clc1ccc2c(n1)NCC2 | 141 to 143
CSc1ccc(C)c(C(=O)O)c1 | 128 to 130
CCOc1ccc(C(=O)O)cc1C | 198 to 200
Nc1cc(=O)[nH]c(=O)n1Cc1ccc(Cl)cc1 | 279 to 281
CC(Cl)C(=O)N1CCSc2ccccc21 (stereo not given) | 81 to 83
Cn1ccc(C(=O)NCCC(=O)O)cc1=O | 214 to 216
CC(C)c1c(C(=O)O)cnc2ncnn12 | 207 to 209
CN(C)c1c(F)cc(C(=N)N)cc1F | 95 to 97
CCn1c(SCC(=O)O)nnc1-c1cccc(C)c1 | 281 to 283
O=c1[nH]c(CCl)nc2scc(-c3ccccc3)c12 | 227 to 229
COc1ccccc1C(=O)NCC(=O)O | 69 to 71
CC(C)(C)S(=O)(=O)CC(=O)O | 89 to 91
CCOc1ccccc1C(=O)CBr | 74 to 76
CC(C)c1ccc(C(N)=S)cc1 | 148 to 150

SMILES | melting point [°C]
Clc1ccnc(-c2ccccc2)n1 | 69 to 71
N#CCC(=O)c1ccc(F)cc1 | 84 to 88
N#CCC(=O)c1ccc(OC(F)F)cc1 | 80 to 82
N#Cc1ccc(S(=O)(=O)NCC2CCCO2)cc1 (stereo not given) | 123 to 125
Nc1ccc(S(=O)(=O)Nc2ccccc2Cl)cc1 | 159 to 161
O=Cc1cnc(-c2cccs2)s1 | 113 to 115
NNC(=O)c1cc2c(s1)CCCCC2 | 253 to 255
Cn1cc(C=NNC(N)=S)cn1 | 189 to 191
O=C(O)c1ccc(Cl)[nH]c1=O | 224 to 226
O=C(O)c1cc(Cl)c2c(c1)OCO2 | 239 to 241
CN(C)C(=O)c1cc(N)ccc1F | 104 to 106
CC(C)(C)OC(=O)N1CCCC(C(=O)O)C1 (stereo not given) | 160 to 162
O=C(O)CC12CC3CC(C1)CC(C(F)(F)F)(C3)C2 | 121 to 123
Cc1nc(C(=O)O)c[nH]1 | 239 to 241
CC(C)C(C#N)NC(=O)c1ccccc1 (stereo not given) | 106 to 108
O=C(c1ccc(Br)cc1)c1cccnc1 | 124 to 126
Cc1ccc(C(=O)COc2ccc(C=O)cc2)cc1C | 65 to 67
Cc1nnnn1C(Cc1ccccc1)C(=O)O (stereo not given) | 167 to 169
c1ccc2oc(C3CCNCC3)nc2c1 | 111 to 113
O=C(NCc1cccc(Br)c1)NC1(C(=O)O)CCCC1 | 170 to 172
Cc1cccc2[nH]cc(CCC(=O)O)c12 | 145 to 147
CC(=O)c1ccc(NC(=O)NC(C)C)cc1 | 147 to 149
Nc1ncc(Cc2ccc(Cl)c(C(F)(F)F)c2)s1 | 70 to 72
Cc1ccc(N2CCC(Br)C2=O)cc1 (stereo not given) | 83 to 85
N#CCC(=O)N1CCN(c2ccccc2)CC1 | 132 to 134

SMILES | melting point [°C]
Cc1cccc(NC(=O)C2CCCNC2)n1 (stereo not given) | 124 to 126
COc1ccc(OCC(=O)O)c(C=O)c1 | 154 to 156
N#Cc1ccc(C(=O)NCC(=O)O)cc1 | 193 to 195
O=C(O)CCc1nccs1 | 123 to 125
Cc1cc(S(N)(=O)=O)c(C)s1 | 139 to 141
O=C(CCl)Nc1ccc(OCc2ccccc2)cc1 | 118 to 120
O=Cc1ccnc2[nH]ccc12 | 169 to 171
COc1ccc(C(=O)O)cc1-c1ccn(C)n1 | 179 to 181
Nc1nc(Cc2ccccc2)c(-c2ccccc2)s1 | 139 to 141
Nc1cccc(N2CCS(=O)(=O)CC2)c1 | 151 to 153
CS(=O)(=O)c1ccc(Oc2ccc(N)cc2)cc1 | 152 to 154
NS(=O)(=O)N1CCC(C(=O)O)CC1 | 177 to 179
O=C(O)CS(=O)(=O)c1ccc(Br)cc1 | 145 to 147
O=S(=O)(Cl)Cc1cc(-c2ccccc2)no1 | 115 to 117
Cc1cc(NC(=O)OCC(F)(F)F)n(CCC#N)n1 | 128 to 130
C#CCn1cnc2c(N)ncnc21 | 184 to 186
Nc1ccc2c(c1)S(=O)(=O)CC2 | 197 to 199
O=C(Nc1ccccc1F)C1CCc2ccccc2N1 (stereo not given) | 96 to 98
Nc1sc2c(c1-c1nc3ccccc3s1)CCC2 | 135 to 137
O=C(O)C1=NN(Cc2ccccc2)C(=O)CC1 | 179 to 181
Nc1cc(C(=O)N2CCCC2)ccc1Cl | 137 to 139
O=C1COc2ccc(C(=O)/C=C/c3ccccc3)cc2N1 | 228 to 230
CC(=O)NC1(C(=O)O)CCCCCC1 | 196 to 198
COC(=O)Cn1ncc2c(=O)[nH]cnc21 | 212 to 214
O=C(O)CCc1ccc2ccccc2c1 | 135 to 137

SMILES | melting point [°C]
CC1CCC(NC(=O)CCl)CC1 (stereo not given) | 152 to 155
Cc1cc(S(=O)(=O)Cl)cc(C(=O)O)c1C | 179 to 181
Cc1cc(N)nn1-c1ccc(F)cc1 | 70 to 72
Cc1ccc(Nc2nnc(S)s2)c(C)c1 | 172 to 174
CN1CCN(CCNCc2ccc(Br)cc2F)CC1 | 45 to 47
CC(=O)c1ccc2ccccc2n1 | 47 to 49
O=C(O)c1ccc2c(=O)[nH]c(S)nc2c1 | 379 to 381
NC(CO)c1ccc(Br)cc1 (stereo not given) | 89 to 91
Nc1ccccc1-c1cc(F)c(F)c(F)c1 | 64 to 66
Cc1ccn2c(C=O)cnc2c1 | 80 to 82
O=C(O)Cc1ccc(F)c(Br)c1 | 64 to 66
COc1cccc(CC(C(=O)O)n2nnnc2C)c1 (stereo not given) | 125 to 127
COC(=O)c1c(F)cccc1S(=O)(=O)Cl | 46 to 48
COc1cc(CC#N)c(Br)cc1OC(F)F | 80 to 82
CC(C)Sc1ccc(Cl)nn1 | 56 to 58
O=c1cc(I)cnn1Cc1ccccc1 | 156 to 158
Brc1csc(Br)n1 | 80 to 84
Cc1nn2c(=O)cc(CCl)nc2s1 | 210 to 212
NC(=O)C1CCCC1N (stereo not given) | 123 to 125
COC(=O)c1nc(Cl)c2ccccc2c1OC | 103 to 105
CC(C)(C)OC(=O)Nc1csc(Br)n1 | 104 to 106
CC(C)CNC(N)=O | 134 to 138
O=C(O)C=Cc1ccc(OCc2ccncc2)cc1 | 298 to 300
CN(C)C(C#N)c1cc[nH]c1 (stereo not given) | 71 to 73
COC(=O)c1ccc(NC(=O)CCCCl)cc1 | 128 to 130

SMILES | melting point [°C]
Cc1cc(C#N)ccc1C(=O)O | 192 to 194
Cc1cc(S(N)(=O)=O)sc1Br | 149 to 151
Cc1cc2oc(=O)cc(CCl)c2cc1Cl | 218 to 220
CCOC(=O)c1nnc(N)s1 | 197 to 199
NC(=NO)c1ccc(COc2ccccc2F)cc1 | 135 to 137
Cc1cc(C)c2c(-c3ccccc3)nc(S)n2n1 | 328 to 330
CC(C)Oc1ccc2ccccc2c1C=O | 65 to 67
NNC(=O)c1ccc(O)c(Cl)c1 | 280 to 282
NC(=O)NC(=O)CCCCl | 179 to 181
CCOC(=O)C(=O)c1nccn1Cc1ccccc1 | 57 to 59
NNC(=O)Nc1ccc(Br)cc1 | 236 to 238
CC(C)(C)OC(=O)Nc1ccccc1N | 105 to 107
O=C(O)C1CCCN(S(=O)(=O)c2ccc(Br)cc2)C1 (stereo not given) | 207 to 209
C/C(=N/O)c1cnn(C)c1 | 144 to 146
COCCOc1ccc(C(F)(F)F)cc1NC(=O)CCl | 80 to 82
Cc1cccc(N2CC(C(=O)O)CC2=O)c1C (stereo not given) | 211 to 213
CNC(=O)c1ccc(C(=O)O)cn1 | 263 to 265
CC1NCCn2c(C(=O)NC3CC3)ccc21 (stereo not given) | 128 to 130
O=C(O)C1(c2cccc(C(F)(F)F)c2)CCC1 | 92 to 94
Cn1cc(C2CC2C(=O)O)cn1 (stereo not given) | 138 to 140
